Assay results: ChEMBL document CHEMBL1131850, “The synthesis and anti-MRSA activity of amidinium-substituted 2-dibenzofuranylcarbapenems” (1999)
In brackets after ≈: the same amount, converted by molar mass.

Key:
Staphylococcus aureus = test: Compound was tested in vitro for its activity against methicillin-Resistant Staphylococcus Aureus(MRSA 12); type: functional
[1] = Compound was tested in vitro for its activity against Methicillin-Resistant Coagulase Negative Staphylococci(MRCNS 9); type: functional; details: Staphylococcus
Mus musculus [2] = species on record: Mus musculus; test: Effective dose against Staphylococcus aureus MB2985 (methicillin-susceptible) in mouse systemic infection model; type: functional
[3] = In vivo inhibitory activity against Staphylococcus aureus MB2985 (methicillin-susceptible) in mouse systemic infection model; type: functional
Mus musculus [4] = species on record: Mus musculus; test: Plasma MIC against staphylococcus aureus infection in mice in presence of human albumin fraction V (21.5 mg/mL); type: functional, organism-based
[5] = Compound was evaluated in vivo for percent binding to human albumin fraction V.; type: functional, organism-based
Mus musculus [6] = test: Compound was evaluated in vivo for plasma MIC in presence of human albumin fraction V (21.5 mg/mL); type: functional, organism-based
Mus musculus [7] = test: Compound was evaluated in vivo for percent binding to human albumin fraction V; type: functional, organism-based

Row | Compound | MIC50 (Staphylococcus aureus) [µg/mL] | MIC90 (Staphylococcus aureus) [µg/mL] | MIC50 [1] [µg/mL] | MIC90 [1] [µg/mL] | ED50 (Mus musculus [2]) [mg/kg] | MIC [3] [µg/mL] | Plasma MIC (Mus musculus [4]) [µg/mL] | PPB [5] [%] | Plasma MIC (Mus musculus [6]) [µg/mL] | PPB (Mus musculus [7]) [%]
1 | CNC(=N)c1cc(C2=C(C(=O)O)N3C(=O)[C@H]([C@@H](C)O)[C@H]3C2)cc2c1oc1ccccc12 | 1 (≈ 2.38 µM) | 4 (≈ 9.54 µM) | 2 (≈ 4.77 µM) | 2 (≈ 4.77 µM) | – | – | – | – | – | –
2 | C[C@@H](O)[C@H]1C(=O)N2C(C(=O)[O-])=C(c3cc(-c4n(C)cc[n+]4C)c4oc5ccccc5c4c3)C[C@H]12 | 4 (≈ 8.74 µM) | 8 (≈ 17.5 µM) | 8 (≈ 17.5 µM) | 16 (≈ 35 µM) | – | – | – | – | – | –
3 | C[C@@H](O)[C@H]1C(=O)N2C(C(=O)O)=C(c3cc(C(=N)N(C)C)c4oc5ccccc5c4c3)C[C@H]12 | 2 (≈ 4.61 µM) | 8 (≈ 18.5 µM) | 4 (≈ 9.23 µM) | 8 (≈ 18.5 µM) | – | – | – | – | – | –
4 | C[C@@H](O)[C@H]1C(=O)N2C(C(=O)O)=C(SCCNC=N)C[C@H]12 [IMIPENEM ANHYDROUS] | 32 (≈ 107 µM) | 128 (≈ 428 µM) | > 128 | > 128 | 0.026 | 0.01 (≈ 0.0334 µM) | 0.014 | < 5 | – | –
5 | C[C@@H](O)[C@H]1C(=O)N2C(C(=O)O)=C(c3cc(C4=NCCN4)c4oc5ccccc5c4c3)C[C@H]12 | 1 (≈ 2.32 µM) | 1 (≈ 2.32 µM) | 1 (≈ 2.32 µM) | 1 (≈ 2.32 µM) | 0.135 | ≤ 0.016 | 0.063 | 34 | – | –
6 | C[C@@H](O)[C@H]1C(=O)N2C(C(=O)O)=C(c3cc(C(N)=O)c4oc5ccccc5c4c3)C[C@H]12 | 0.5 (≈ 1.23 µM) | 1 (≈ 2.46 µM) | 2 (≈ 4.92 µM) | 2 (≈ 4.92 µM) | 0.55 | 0.031 (≈ 0.0763 µM) | – | 95 | 1 | –
7 | C[C@@H](O)[C@H]1C(=O)N2C(C(=O)O)=C(c3cc(C4=NCCCN4)c4oc5ccccc5c4c3)C[C@H]12 | 1 (≈ 2.24 µM) | 2 (≈ 4.49 µM) | 2 (≈ 4.49 µM) | 4 (≈ 8.98 µM) | – | – | – | – | – | –
8 | C[C@@H](O)[C@H]1C(=O)N2C(C(=O)[O-])=C(c3cc(C4=[N+](C)CCN4C)c4oc5ccccc5c4c3)C[C@H]12 | 8 (≈ 17.4 µM) | 32 (≈ 69.6 µM) | 16 (≈ 34.8 µM) | 32 (≈ 69.6 µM) | – | – | – | – | – | –
9 | C[C@@H](O)[C@H]1C(=O)N2C(C(=O)O)=C(c3ccc4oc5ccccc5c4c3)C[C@H]12 | 2 (≈ 5.5 µM) | 4 (≈ 11 µM) | 4 (≈ 11 µM) | 8 (≈ 22 µM) | – | – | – | – | – | –
10 | C[C@@H](O)[C@H]1C(=O)N2C(C(=O)O)=C(c3cc(C#N)c4oc5ccccc5c4c3)C[C@H]12 | 0.5 (≈ 1.29 µM) | 1 (≈ 2.57 µM) | 1 (≈ 2.57 µM) | 1 (≈ 2.57 µM) | 1.44 | < 0.016 | – | – | > 32 | 98
11 | C[C@@H](O)[C@H]1C(=O)N2C(C(=O)O)=C(c3cc(C4=NCCN4C)c4oc5ccccc5c4c3)C[C@H]12 | 2 (≈ 4.49 µM) | 4 (≈ 8.98 µM) | 2 (≈ 4.49 µM) | 4 (≈ 8.98 µM) | – | – | – | – | – | –
12 | CN[C@H](CC(C)C)C(=O)N[C@H]1C(=O)N[C@@H](CC(N)=O)C(=O)N[C@H]2C(=O)N[C@H]3C(=O)N[C@H](C(=O)N[C@H](C(=O)O)c4cc(O)cc(O)c4-c4cc3ccc4O)[C@H](O)c3ccc(c(Cl)c3)Oc3cc2cc(c3O[C@@H]2O[C@H](CO)[C@@H](O)[C@H](O)[C@H]2O[C@H]2C[C@](C)(N)[C@H](O)[C@H](C)O2)Oc2ccc(cc2Cl)[C@H]1O [VANCOMYCIN] | 1 (≈ 0.69 µM) | 2 (≈ 1.38 µM) | 4 (≈ 2.76 µM) | 8 (≈ 5.52 µM) | – | – | – | – | – | –
13 | C[C@@H](O)[C@H]1C(=O)N2C(C(=O)O)=C(c3cc(C(=N)N)c4oc5ccccc5c4c3)C[C@H]12 | 1 (≈ 2.47 µM) | 2 (≈ 4.93 µM) | 1 (≈ 2.47 µM) | 2 (≈ 4.93 µM) | < 0.096 | 0.031 (≈ 0.0765 µM) | 0.031 | 71 | – | –
